This is an account of results in US9394329B2, “Glucopyranosyl derivatives and their uses in medicine” (Sunshine Lake Pharma Co., Ltd., priority 2013, dated 2016).

The structures appear in SMILES notation.

Experiment [1] deals with T1, SGLT-2 (Homo sapiens, UniProt P31639).
T1 construct: expressed in transfected cells
T1 sequence (P31639 1-672): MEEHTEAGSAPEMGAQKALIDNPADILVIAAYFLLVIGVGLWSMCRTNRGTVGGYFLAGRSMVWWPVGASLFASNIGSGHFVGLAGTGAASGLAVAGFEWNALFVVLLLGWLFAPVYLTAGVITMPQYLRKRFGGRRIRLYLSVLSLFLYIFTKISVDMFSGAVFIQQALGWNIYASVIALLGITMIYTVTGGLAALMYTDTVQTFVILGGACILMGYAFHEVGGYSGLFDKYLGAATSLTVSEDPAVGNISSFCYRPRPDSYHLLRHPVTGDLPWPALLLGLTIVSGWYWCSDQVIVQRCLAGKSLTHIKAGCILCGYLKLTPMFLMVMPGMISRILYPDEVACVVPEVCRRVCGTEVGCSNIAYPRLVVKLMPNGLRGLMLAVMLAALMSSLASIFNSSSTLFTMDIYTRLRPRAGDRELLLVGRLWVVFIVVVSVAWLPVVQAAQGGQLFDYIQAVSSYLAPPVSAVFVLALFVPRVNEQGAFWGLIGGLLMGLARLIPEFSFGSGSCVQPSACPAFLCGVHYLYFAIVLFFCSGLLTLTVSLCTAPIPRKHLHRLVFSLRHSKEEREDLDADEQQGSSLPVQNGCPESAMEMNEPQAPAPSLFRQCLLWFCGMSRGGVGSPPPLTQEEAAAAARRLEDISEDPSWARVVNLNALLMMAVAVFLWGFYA
In words: SGLT-2 activity measurement ([14C]-AMG uptake in CHO cells expressing human SGLT2). Format: cell-based. Conditions: CHO cells expressing human SGLT2, 0.5 μm [14C]-AMG, 37° C. for 1 hour. An excerpt:
(§1) The following methods can be used to determine the inhibitory activity of the compounds described in the invention for SGLT-1 and SGLT-2.
(§2) ^14C-AMG solution was purchased from PerkinElmer, Cat. No. NEZ080001MC.
(§3) α-Methylglucoside was purchased from Sigma, Cat. No. M9376-100G.
(§4) N-methyl-D-glucosamine was purchased from Sigma, Cat. No. M2004-100G.
(§5) Phloridzin was purchased from Sigma, Cat. No. P3449-1G.
(§6) 96-Well plate was purchased from Corning, Cat. No. 3903.
(§7) Mock-transfected FIP-in CHO cells (3×10^4 cells) and expressing human SGLT1/SGLT2 CHO cells were seeded into 96-well plates respectively. The cells were incubated for 12 hours. Each well of the 96-well plates was washed with 150 μL of sodium-free buffer once. To each well was added 50 μL of sodium-containing buffer containing test compounds having different concentrations and […] [^14C]-AMG. The incubation mixture was incubated at 37° C. for 1 hour. To each well was added 150 μL of precooled sodium-free buffer to terminate the reaction. The cell pellet was washed with sodium-free buffer three times and the residual liquid in well was removed. To each well was added 20 μL of precooled 100 mM NaOH. The 96-well plates were vibrated at 900 rpm for 5 minutes. Scintillation fluid (80 μL) was added to each well which was then vibrated at 600 rpm for 5 minutes. The amount of ^14C-AMG was quantitatively detected using liquid scintillation.

Experiment [2] deals with T2, SGLT-1 (Homo sapiens, UniProt P13866).
T2 construct: expressed in transfected cells
T2 sequence (P13866 1-664): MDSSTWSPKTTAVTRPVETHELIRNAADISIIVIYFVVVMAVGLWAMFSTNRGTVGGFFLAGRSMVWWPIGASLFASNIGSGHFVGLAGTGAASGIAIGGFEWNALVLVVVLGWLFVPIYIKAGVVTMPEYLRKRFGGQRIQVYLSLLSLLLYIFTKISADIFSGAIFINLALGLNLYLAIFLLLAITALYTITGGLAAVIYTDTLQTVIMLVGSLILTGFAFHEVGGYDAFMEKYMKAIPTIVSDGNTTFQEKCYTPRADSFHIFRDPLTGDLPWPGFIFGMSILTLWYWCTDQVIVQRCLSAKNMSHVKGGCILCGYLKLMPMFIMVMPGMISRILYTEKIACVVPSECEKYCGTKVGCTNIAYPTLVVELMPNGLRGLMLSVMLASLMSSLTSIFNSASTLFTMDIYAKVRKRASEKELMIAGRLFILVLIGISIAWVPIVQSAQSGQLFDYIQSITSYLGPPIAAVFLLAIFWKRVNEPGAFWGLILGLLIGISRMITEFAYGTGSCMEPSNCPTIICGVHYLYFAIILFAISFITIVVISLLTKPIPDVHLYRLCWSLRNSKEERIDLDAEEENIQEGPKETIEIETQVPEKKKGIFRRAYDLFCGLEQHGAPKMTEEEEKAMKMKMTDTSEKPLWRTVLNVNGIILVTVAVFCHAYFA
In words: SGLT-1 activity measurement ([14C]-AMG uptake in CHO cells expressing human SGLT1). In kind it is cell-based. Conditions: CHO cells expressing human SGLT1, 0.5 μm [14C]-AMG, 37° C. for 1 hour.
Source text: as §1, §2, §3, §4, §5, §6, §7

Turning to `CCOc1ccc(Cc2cc([C@]34OCC(C(O)CC)(O3)[C@@H](O)[C@H](O)[C@H]4O)ccc2Cl)cc1` (stereo in doubt) [Example 3, (1S,2S,3S,4R,5S)-5-[4-Chloro-3 [(4-ethoxyphenyl)methyl]phenyl]-1-(1-hydroxypropyl)-6,8-dioxabicyclo[3.2.1]octane-2,3,4-triol], it took 9.8 nM to reach half-maximal inhibition in experiment [1] (IC50).
Turning to `C#CC(O)C12CO[C@@](c3ccc(Cl)c(Cc4ccc(OCC)cc4)c3)(O1)[C@H](O)[C@@H](O)[C@@H]2O` (stereo in doubt) [Example 4, (1S,2S,3S,4R,5S)-5-[4-Chloro-3 [(4-ethoxyphenyl)methyl]phenyl]-1-(1-hydroxyprop-2-yn-1-yl)-6,8-dioxabicyclo[3.2.1]octane-2,3,4-triol], the IC50 in experiment [1] turned out to be 9.39 nM; in experiment [2], 4210 nM.
The corresponding values for `CCOc1ccc(Cc2cc([C@]34OC[C@](C(C)O)(O3)[C@@H](O)[C@H](O)[C@H]4O)ccc2Cl)cc1` (stereo partly drawn) [Example 1, (1R,2S,3S,4R,5S)-5-[4-Chloro-3-[(4-ethoxyphenyl)methyl]phenyl]-1-(1-hydroxyethyl)-6,8-dioxabicyclo[3.2.1]octane-2,3,4-triol] are 1.65 nM and 260 nM.
`CCOc1ccc(Cc2cc([C@]34OC[C@](C(C)(C)O)(O3)[C@@H](O)[C@H](O)[C@H]4O)ccc2Cl)cc1` [Example 2, (1S,2S,3S,4R,5S)-5-[4-Chloro-3-[(4-ethoxyphenyl)methyl]phenyl]-1-(2-hydroxypropan-2-yl)-6,8-dioxabicyclo[3.2.1]octane-2,3,4-triol]: the half-inhibitory concentration (IC50) amounted to 1.14 nM in experiment [1] and 110 nM in experiment [2].
In experiment [2], `CC#CC(O)[C@@]12CO[C@@](c3ccc(Cl)c(Cc4ccc(OCC)cc4)c3)(O1)[C@H](O)[C@@H](O)[C@@H]2O` (stereo partly drawn) [Example 5, (1R,2S,3S,4R,5S)-5-[4-chloro-3 [(4-ethoxyphenyl)methyl]phenyl]-1-(1-hydroxybut-2-ynyl)-6,8-dioxabicyclo[3.2.1]octane-2,3,4-triol] registered an IC50 of 840 nM.
As for `CCOc1ccc(Cc2cc([C@]34OC[C@](C5(O)CC5)(O3)[C@@H](O)[C@H](O)[C@H]4O)ccc2Cl)cc1` [Example 6, (1S,2S,3S,4R,5S)-5-[4-Chloro-3 [(4-ethoxyphenyl)methyl]phenyl]-1-(1-hydroxycyclopropyl)-6,8-dioxabicyclo[3.2.1]octane-2,3,4-triol], the 50% inhibitory concentration (IC50) worked out at 3.6 nM in experiment [1] and 26800 nM in experiment [2].
`CCOc1ccc(Cc2cc([C@]34OC[C@](C(O)CO)(O3)[C@@H](O)[C@H](O)[C@H]4O)ccc2Cl)cc1` (stereo partly drawn) [Example 7, (1R,2S,3S,4R,5S)-5-[4-Chloro-3-[(4-ethoxyphenyl)methyl]phenyl]-1-(1,2-dihydroxyethyl)-6,8-dioxabicyclo[3.2.1]octane-2,3,4-triol] gave an IC50 in experiment [1] of 4.96 nM.
Same read-out and setting: the value for `CCOc1ccc(Cc2cc([C@]34OC(C)[C@](CO)(O3)[C@@H](O)[C@H](O)[C@H]4O)ccc2Cl)cc1` (stereo partly drawn) [Example 8, (1R,2S,3S,4R,5S)-5-[4-Chloro-3-[(4-ethoxyphenyl)methyl]phenyl]-1-(hydroxymethyl)-7-methyl-6,8-dioxabicyclo[3.2.1]octane-2,3,4-triol] was 51.8 nM; that for `CCOc1ccc(Cc2cc([C@]34OC[C@](C(O)CN)(O3)[C@@H](O)[C@H](O)[C@H]4O)ccc2Cl)cc1` (stereo partly drawn) [Example 10, (1R,2S,3S,4R,5S)-1-(2-Amino-1-hydroxy-ethyl)-5-[4-chloro-3-[(4-ethoxyphenyl)methyl]phenyl]-6,8-dioxabicyclo[3.2.1]octane-2,3,4-triol] was 3730 nM; that for `CCOc1ccc(Cc2cc([C@]34OC[C@](C(O)CNC)(O3)[C@@H](O)[C@H](O)[C@H]4O)ccc2Cl)cc1` (stereo partly drawn) [Example 11, (1R,2S,3S,4R,5S)-5-[4-chloro-3-[(4-ethoxyphenyl)methyl]phenyl]-1-[1-hydroxy-2-(methylamino)ethyl]-6,8-dioxabicyclo[3.2.1]octane-2,3,4-triol] was 498 nM.
Same read-out and setting: for `CCOC(=O)OC(C)[C@@]12CO[C@@](c3ccc(Cl)c(Cc4ccc(OCC)cc4)c3)(O1)[C@H](O)[C@@H](O)[C@@H]2O` (stereo partly drawn) [Example 12, 1-[(1S,2S,3S,4R,5S)-5-[4-Chloro-3-[(4-ethoxyphenyl)methyl]phenyl]-2,3,4-trihydroxy-6,8-dioxabicyclo[3.2.1]octan-1-yl]ethyl ethyl carbonate] the value was 12.7 nM.
Regarding `CCOc1ccc(Cc2cc([C@]34OC[C@](C(C)OC(=O)OC(C)C)(O3)[C@@H](O)[C@H](O)[C@H]4O)ccc2Cl)cc1` (stereo partly drawn) [Example 13, 1-[(1S,3S,4R,5S)-5-[4-Chloro-3-[(4-ethoxyphenyl)methyl]phenyl]-2,3,4-trihydroxy-6,8-dioxabicyclo[3.2.1]octan-1-yl]ethyl isopropyl carbonate], the IC50 in experiment [1] was determined as 44.1 nM; in experiment [2], 3760 nM.
In the case of `CC(O)[C@@]12CO[C@@](c3ccc(Cl)c(Cc4ccc(OC(F)(F)F)cc4)c3)(O1)[C@H](O)[C@@H](O)[C@@H]2O` (stereo partly drawn) [Example 15, (1R,2S,3S,4R,5S)-5-[4-chloro-3-[[4-(trifluoromethoxy)phenyl]methyl]phenyl]-1-(1-hydroxyethyl)-6,8-dioxabicyclo[3.2.1]octane-2,3,4-triol], the values for the IC50 in experiment [1] and in experiment [2] were 1.96 nM and 290 nM, respectively.
`CCOc1ccc(Cc2cc([C@]34OC[C@](C(C)(C)O)(O3)[C@@H](O)[C@H](O)[C@H]4O)ccc2Cl)c(F)c1F` [Example 24, (1S,2S,3S,4R,5S)-5-[4-Chloro-3-[(4-ethoxy-2,3-difluoro-phenyl)methyl]phenyl]-1-(1-hydroxy-1-methyl-ethyl)-6,8-dioxabicyclo[3.2.1]octane-2,3,4-triol] had an IC50 in experiment [1] of 2.19 nM.
Same read-out and setting: the value for `CCOc1ccc(Cc2cc([C@]34OC[C@](C5CO5)(O3)[C@@H](O)[C@H](O)[C@H]4O)ccc2Cl)cc1` (stereo partly drawn) [Example 26, (1S,2S,3S,4R,5S)-5-[4-chloro-3-[(4-ethoxyphenyl)methyl]phenyl]-1-(oxiran-2-yl)-6,8-dioxabicyclo[3.2.1]octane-2,3,4-triol] was 6.85 nM; that for `CCOc1ccc(Cc2cc([C@]34OC[C@](C5CNC(=O)O5)(O3)[C@@H](O)[C@H](O)[C@H]4O)ccc2Cl)cc1` (stereo partly drawn) [Example 27, 5-((1S,2S,3S,4R,5S)-5-(4-Chloro-3-(4-ethoxybenzyl)phenyl)-2,3,4-trihydroxy-6,8-dioxabicyclo[3.2.1]octan-1-yl)oxazolidin-2-one] was 13.8 nM; that for `CCOc1ccc(C(O)c2cc([C@]34OC[C@](C(C)O)(O3)[C@@H](O)[C@H](O)[C@H]4O)ccc2Cl)cc1` (stereo partly drawn) [Example 29, (1R,2S,3S,4R,5S)-5-[4-chloro-3-[(4-ethoxyphenyl)-hydroxy-methyl]phenyl]-1-(1-hydroxyethyl)-6,8-dioxabicyclo[3.2.1]octane-2,3,4-triol] was 1.46 nM.
On the same count and under the same terms, the value for `CCOc1ccc(Cc2cccc([C@]34OC[C@](C(C)O)(O3)[C@@H](O)[C@H](O)[C@H]4O)c2)cc1` (stereo partly drawn) [Example 30, (1R,2S,3S,4R,5S)-5-[3-[(4-Ethoxyphenyl)methyl]phenyl]-1-(1-hydroxyethyl)-6,8-dioxabicyclo[3.2.1]octane-2,3,4-triol] was 12.1 nM.

As usually defined, the IC50 is the concentration needed to halve the response being measured.
